For 8 molecules, GI50 and TGI results are on record in PubChem BioAssay (NCI).

Values joined by “and” are separate entries in the source; they are usually repeats but may differ in a detail not shown here. Equal values may be shown once.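 1) Cells in 96-well plates. 2) Compound, 48 h, 5 concentrations. 3) Linear interpolation between surrounding doses. 4) Unreached endpoint = highest concentration. Here, GI50 denotes the concentration required for 50% inhibition of growth. TGI: concentration producing complete growth inhibition.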

Common to all, as to test: NCI anticancer screen, dose series, 48 h
Experiment [1] concerns IGROV1 ovarian.
Experiment [2] relates to COLO 205 colon.
In experiment [3] the test system is KM12 colon.
Experiment [4] concerns SNB-75 CNS.
The test system of experiment [5] is SF-539 CNS.
Experiment [6] relates to DU-145 prostate.
In experiment [7] the test system is U251 CNS.
Experiment [8] has as its system RPMI-8226 leukemia.
For experiment [9], the system named is UACC-257 melanoma.
In experiment [10] the test system is RXF 393 renal.

For `O=[N+]([O-])c1cc(Cl)c(Cl)c([N+](=O)[O-])c1Cl`, the GI50 was 1.42 µM in experiment [1]; 1.55 µM in [2]; 1.44 µM in [3]; 1.47 µM in experiment [4]; 2.53 µM in experiment [5]; 1.63 µM in experiment [6]. The GI50 in experiment [7] is 1.03 µM; in experiment [8], 0.422 µM; in [9], 1.56 µM; in experiment [10] it was 1.82 µM. Besides, the TGI in experiment [1] was found to be 3.02 µM; in [2], 2.91 µM; in experiment [3], 2.97 µM; in [4], 2.81 µM; in experiment [5] it was 6.94 µM; in experiment [6] it was 2.99 µM. Moreover, the TGI in experiment [7] is 2.61 µM; in experiment [8], 2.61 µM; in experiment [9], 3.08 µM; in experiment [10] it was 3.25 µM.

Consider `CO[C@@H]1/C=C\C=C(/C)C(=O)NC2=CC(=O)C(NCCN(C)C)=C(C[C@@H](C)C[C@@H](OC)[C@@H](O)[C@H](C)/C=C(\C)[C@H]1OC(N)=O)C2=O`, for which the GI50 in experiment [1] is 0.0164 µM; in [3], 0.0147 µM; in [4] it was less than 0.0235 µM; in experiment [5], < 0.01 µM and 0.0319 µM; in experiment [6], less than 0.01 µM; in experiment [7] it was 0.0144 µM. Moreover, the GI50 in experiment [9] is 0.0196 µM. Besides, the TGI in experiment [1] was 1.85 µM and 1.99 µM; in experiment [2], 0.171 µM; in experiment [3] it was 1.02 µM and 0.448 µM; in [4] it was 0.977 µM and 6.15 µM; in experiment [5], 11.6 µM and 3.38 µM; in experiment [6], 5.13 µM and 12.4 µM. Further, the TGI was 8.18 µM in experiment [7]; 19.6 µM and 6.32 µM in [8]; 2.06 µM and 1.27 µM in experiment [9]; 11.8 µM and 10.8 µM in [10].

In the case of `O=S(=O)(NC1=NCCN1C(=S)SN1CCn2c1nsc2=S)c1ccc(Br)cc1`, the GI50 in [1] was 30.7 µM; in experiment [2], 28.7 µM; in experiment [3], 25.5 µM; in experiment [4], 44.5 µM; in [5], 18.6 µM; in [6], 28.9 µM. Besides, the GI50 in experiment [7] was 38.9 µM; in experiment [8], 1.86 µM; in [9] it was 46.6 µM; in [10] it was 17.8 µM. Also, the TGI was 95 µM in experiment [1]; 86.3 µM in [2]; more than 100 µM in experiment [3]; more than 100 µM in experiment [4]; 38.9 µM in experiment [5]; more than 100 µM in experiment [6]. Also, the TGI was more than 100 µM in experiment [7], 37.2 µM in experiment [8], more than 100 µM in [9] and 51.4 µM in [10].

Turning to `COc1cc(OC)cc(C2CC(=O)Nc3c2c(C)nn3-c2nc3ccccc3[nH]2)c1` (centres undefined), the GI50 in experiment [1] was 2.74 µM; in experiment [2], 2.7 µM; in experiment [3] it was 2.79 µM; in experiment [4] it was 3.47 µM; in experiment [5] it was 2.96 µM; in experiment [6], 3.73 µM. Besides, the GI50 in experiment [7] is 2.99 µM; in [8] it was 2.64 µM; in experiment [9] it was 2.64 µM; in experiment [10] it was 3.21 µM. Besides, the TGI in experiment [1] came out at 7.76 µM; in experiment [2], 6.55 µM; in experiment [3] it was 7.68 µM; in experiment [4], 9.65 µM; in experiment [5] it was 9.43 µM; in [6], 17.1 µM. The TGI in experiment [7] came to 9.57 µM; in experiment [8], 6.29 µM; in [9], 7.32 µM; in experiment [10], 24.6 µM.

Consider `Cc1ccccc1NC(=O)N/C(N)=N/c1nc(-c2cccc([N+](=O)[O-])c2)cs1`, for which the GI50 in [1] was 1.71 µM; in experiment [2] it was 3.89 µM; in experiment [3], 2.49 µM; in experiment [4] it was 1.28 µM; in experiment [5], 1.65 µM; in experiment [6] it was 3.35 µM. Further, the GI50 in experiment [7] is 2.76 µM; in experiment [8] it was 3.09 µM; in [9], 4.85 µM; in [10], 1.78 µM. For the same molecule, the TGI was 11.5 µM in experiment [1]; more than 100 µM in [2]; more than 100 µM in experiment [3]; 3.62 µM in [4]; 3.21 µM in [5]; 65.1 µM in experiment [6]. Moreover, the TGI was 10.5 µM in experiment [7], more than 100 µM in experiment [8], more than 100 µM in [9] and 4.33 µM in experiment [10].

`O=c1c2c(nc3n1CCS3)[nH]c1ccccc12`: the GI50 in [1] was 17.8 µM; in [2] it was more than 100 µM; in experiment [3], more than 100 µM; in [4], 30.5 µM; in experiment [5] it was more than 100 µM; in experiment [6], more than 100 µM. In addition, the GI50 in experiment [7] is more than 100 µM; in experiment [8], more than 100 µM; in [9] it was more than 100 µM; in experiment [10], 58.6 µM. In addition, the TGI in experiment [1], in [2], in experiment [3], in experiment [4], in [5] and in [6] was more than 100 µM throughout. Also, the TGI in experiment [7], in experiment [8], in experiment [9] and in [10] was more than 100 µM each time.

For `Cn1ccnc1CC(C)(O)c1ccccc1` (centres undefined), the TGI in experiment [1], in experiment [2], in experiment [3], in [4], in [5] and in experiment [6] was more than 100 µM each time. Besides, the TGI in experiment [7], in experiment [8], in [9] and in experiment [10] was more than 100 µM in each case.

Turning to `CC(=O)N[C@H]1C=C[C@@H]2/C=C(C)/C=C/[C@@H](C)[C@H]([C@H](C)[C@H](O)[C@@H](C)NC(C)=O)OC(=O)/C=C/C=C(C)\C=C\[C@]2(C)C1`, the GI50 in experiment [1] was 0.0215 µM and 0.00532 µM; in experiment [2], 0.0173 µM and 0.0045 µM; in experiment [3] it was 0.0246 µM and 0.0045 µM; in experiment [4], 0.00243 µM and 0.0045 µM; in experiment [5], 0.0107 µM and 0.0045 µM; in [6], 0.0294 µM and 0.00897 µM. For the same molecule, the GI50 in experiment [7] is 0.00747 µM and 0.0045 µM; in experiment [8], 0.0428 µM and 0.0045 µM; in experiment [10] it was 0.0103 µM and 0.0045 µM. Also, the TGI in experiment [1] was 4.65 µM and > 45 µM; in experiment [2] it was 4.65 µM and 5.38 µM; in experiment [3] it was 4.65 µM and > 45 µM; in experiment [5], 4.65 µM and 24.6 µM; in [6] it was 4.65 µM and > 45 µM; in experiment [7], 4.65 µM and > 45 µM. In addition, the TGI in experiment [8] was 4.65 µM and 13.1 µM; in [9] it was 4.65 µM and 16.5 µM.
